Experimental findings from PMC10388311, “Innovative Strategy toward Mutant CFTR Rescue in Cystic Fibrosis: Design and Synthesis of Thiadiazole Inhibitors of the E3 Ligase RNF5” (Journal of Medicinal Chemistry, 2023) are described below.

Converted amounts (≈) assume the structure as drawn. Like-named read-outs stand apart in the source and are kept apart here. Bounds are passed on as bounds.

This series in a line: Solubility and aggregation in PBS buffer by NMR (SPAM filter, 1H 1D and WaterLOGSY). It counts as physicochemical. As to conditions: for solubility and aggregation in PBS (in words): NMR; for solubility at 20 µM / solubility at 50 µM / solubility at 100 µM / aggregation in PBS buffer by NMR / solubility: PBS pH 7.5, 1 μM ZnCl2, 1 mM DTT, 10% D2O, 1% DMSO-d6; for solubility at 100 µM: theoretical concentration 100 μM; for aggregation in PBS buffer by NMR: WaterLOGSY. An excerpt: Under these circumstances, it was decided to explore the solubility of all the synthetized compounds, regardless of their biological activities, to find a suitable candidate for the validation of our working hypothesis, i.e., that the compounds exert their activities by directly binding to RNF5. For that, we first calculated the predicted octanol/water partition coefficient (log Po/w) and the predicted aqueous solubility (log S) of all the analogues by QikProp (Schrödinger Release 2022-1: QikProp, Schrödinger, LLC, New York, NY, 2021, Table S1). […] To shrink down the number of compounds for solubility experiments, just the ones that had −2.0 < log Po/w < 6 and −6.5 < log S <0.5 values were selected. Among them, the PBS solubility was determined for five representative analogues: (i) 12 and 29 bearing different substituents on the benzyl group A; (ii) 34 and 40 showing the replacement of rings B and C with pyridine-4-yl moieties; (iii) 42 in which the N-phenylbenzamidine portion was replaced with a pyridine-2-yl moiety (Table 1).
All the NMR experiments were recorded at 298 K using a 5 mm CryoProbe QCI ^1H/^19F–^13C/^15N–D quadruple resonance, a shielded z-gradient coil, and an automatic sample changer SampleJet NMR system with temperature control. The solubility of the compounds were evaluated by ^1H 1D experiments and aggregation by WaterLOGSY, testing the compounds in buffer PBS pH 7,5, 1 μM ZnCl2, 1 mM DTT, 10% D2O (for the lock signal), and 1% DMSO-d6 at the theoretical concentrations of 20, 50, and 100 μM in the presence of 200 μM 4-trifluoromethyl benzoic acid (internal reference). For all samples, a 1D ^1H NMR experiment was recorded, the water suppression was obtained using the standard NOESY (nuclear Overhauser effect spectroscopy) preset Bruker pulse sequence, with 64k data points, a spectral width (sw) of 30 ppm, 64 scans, acquisition time (aq) of 1.835 s, a relaxation delay (d1) of 4 s, and a mixing time of 10 ms. […] The data were multiplied by an exponential window function with 1 Hz line broadening prior to Fourier transformation. For NMR binding experiments, the compounds were tested at 50 μM in buffer PBS pH 7.5, 1 μM ZnCl2, 1 mM DTT, 10% D2O (for the lock signal), and 1% DMSO-d6 in the absence and in the presence of 3 μM RNF5. WaterLOGSY experiments were recorded with the same parameters used in solubility assays, but with a higher number of scans (512); STD experiments were recorded with 128 scans, with two on (0.7 and 1 ppm) and one off (−50 ppm) resonance spectra, a Gaussian-shaped train pulse of 50 ms each was employed, with a total saturation time of the protein envelope of 5, 3, 2, 1.5, 1, or 0.5 s. A T1ρ filter of 2 ms was employed in STD experiments to eliminate the background signals from the protein. The STD spectrum was obtained by subtraction of the on-resonance spectrum from the off-resonance spectrum. Subtraction was performed by phase cycling to minimize artifacts arising from magnet and temperature instabilities.

The mark [1] stands for this setting: PBS buffer, aqueous buffer, kinetic from dmso stock, theoretical concentration 20 μM.
Setting [2] is: PBS buffer, aqueous buffer, kinetic from dmso stock, theoretical concentration 50 μM.
Where [3] appears, read: PBS buffer, aqueous buffer, kinetic from dmso stock.
The mark [4] stands for this setting: PBS buffer, aqueous buffer, kinetic from dmso stock, theoretical concentration 20 μM, read-out: solubility in PBS buffer by NMR, 20 μM.
Where [5] appears, read: theoretical concentration 50 μM.

As a reminder, the solubility is how much of the substance goes into solution per volume. `Cc1ns/c(=N\C(=N\c2ccccc2)c2ccccc2)n1Cc1ccc(C(=O)O)cc1` [Compound 12, 4-(((Z)-3-Methyl-5-(((E)-phenyl(phenylimino)methyl)imino)-1,2,4-thiadiazol-4(5H)-yl)methyl)benzoic Acid]: the “aggregation in PBS buffer by NMR” value is “no”. Moreover, where the note is “PBS buffer”, the “solubility and aggregation in PBS (in words)” value (“solubility and aggregation” below) was “no aggregation and solubility suitable for in vitro/biophysical binding experiments”. This compound also came in with a solubility at 20 µM under setting [1] of 20 µM (≈ 8.57 µg/mL). Further, under setting [2], the solubility at 50 µM was 50 µM (≈ 21.4 µg/mL). Under setting [3], this compound gave a solubility at 100 µM of 100 µM (≈ 42.9 µg/mL).
In the case of `COc1cccc(Cn2c(C)ns/c2=N\C(=N\c2ccccc2)c2ccccc2)c1` [Compound 16, (E)-N-((Z)-4-(3-Methoxybenzyl)-3-methyl-1,2,4-thiadiazol-5(4H)-ylidene)-N′-phenylbenzimidamide], the “aggregation in PBS buffer by NMR” value was “no” and the solubility at 100 µM is on record as less than 5 µM. In addition, under setting [4], the solubility was less than 5 µM. Besides, the solubility at 50 µM under setting [5] is less than 5 µM.
Turning to `Cc1ns/c(=N\C(=N\c2ccncc2)c2ccccc2)n1Cc1ccccc1` [Compound 40, (E)-N-((Z)-4-Benzyl-3-methyl-1,2,4-thiadiazol-5(4H)-ylidene)-N′-(pyridin-4-yl)benzimidamide], the “aggregation in PBS buffer by NMR” value is “no”. In addition, the “solubility and aggregation” value (PBS buffer) is “no aggregation and solubility suitable for in vitro/biophysical binding experiments”. The solubility at 20 µM under setting [1] was 20 µM (≈ 7.71 µg/mL). The solubility (PBS buffer, aqueous buffer, kinetic from dmso stock, theoretical concentration 50 μM, read-out: solubility in PBS buffer by NMR, 50 μM) stood at 30 µM (≈ 11.6 µg/mL).
Turning to `Cc1ns/c(=N\c2ccccn2)n1Cc1ccccc1` [Compound 42, (Z)-4-Benzyl-3-methyl-N-(pyridin-2-yl)-1,2,4-thiadiazol-5(4H)-imine], the “aggregation in PBS buffer by NMR” value is on record as “no”. Besides, the “solubility and aggregation” value (PBS buffer) was “no aggregation and solubility suitable for in vitro/biophysical binding experiments”. Under setting [1], this compound yielded a solubility at 20 µM of 20 µM (≈ 5.65 µg/mL). This compound had a solubility at 50 µM under setting [2] of 40 µM (≈ 11.3 µg/mL). The compound further gave a solubility at 100 µM under setting [3] of 5 µM (≈ 1.41 µg/mL).
`Cc1ns/c(=N\C(=N\c2ccccc2)c2ccccc2)n1Cc1ccccc1` [inh-2, reference compound]: the “aggregation in PBS buffer by NMR” value was “no” and the solubility at 100 µM is less than 5 µM. Further, the solubility under setting [4] is less than 5 µM. This compound also yielded a solubility at 50 µM under setting [5] of less than 5 µM.
